Results published in patent US6590140B1, “Metal-regulated transporters and uses therefor” (Trustees of Dartmouth College, priority 1996, dated 2003).

Target: T1, IRT1 (Arabidopsis thaliana, UniProt Q38856)
T1 construct: contain a single 1017 bp open reading frame capable of encoding a polypeptide of 339 amino acids; expressed in transfected cells; host or cells: S. cerevisiae fet3 fet4 strain DEY1453 carrying pIRT-1 (pFL61 library vector, phosphoglycerate kinase promoter)
T1 sequence (Q38856 9-347 limits assumed): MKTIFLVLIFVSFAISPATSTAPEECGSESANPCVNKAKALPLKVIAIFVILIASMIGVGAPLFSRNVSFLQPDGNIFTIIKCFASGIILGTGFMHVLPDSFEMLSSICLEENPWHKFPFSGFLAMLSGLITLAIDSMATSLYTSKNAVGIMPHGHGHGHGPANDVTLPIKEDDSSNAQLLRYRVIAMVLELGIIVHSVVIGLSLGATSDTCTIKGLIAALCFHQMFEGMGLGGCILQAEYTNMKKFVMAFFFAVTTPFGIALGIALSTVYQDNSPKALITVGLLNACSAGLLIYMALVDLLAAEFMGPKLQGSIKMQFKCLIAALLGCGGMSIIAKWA
Assay: 55Fe uptake in fet3 fet4 yeast expressing IRT1
Assay type: cell-based
Settings: for effect on the rate of iron uptake by IRT1: 10 μM metal, 10 times the radiolabeled iron, Fe(II) with 1 mM ascorbate
Procedure: Iron uptake assays using ^55FeCl3 (Amersham, Arlington Heights, Ill.) were performed as described (Eide, D. et al. (1992) J. Biol. Chem. 267: 20774-20781) except that MGN (10 mM Mes/2% glucose/1 mM nitrilotriacetic acid, pH 6.1) was used for the assay buffer. Where noted, 1 mM sodium ascorbate was added to reduce Fe(III) to Fe(II). Stock solutions of the chloride salt of each metal (except for iron) were prepared in water at a concentration of 100 mM and diluted into MGN to a final concentration of 10 μM before addition of the cells. The ^56FeCl3 stock was 50 mM prepared in 0.1 M HCl. The statistical significance of differences in values relative to controls was determined using STATVIEW software (Abacus Concepts, Berkeley, Calif.). Data was subjected to one-way analysis of variance (ANOVA) followed by a Scheffe's test.
To determine if IRT1 encodes an iron transporter, ^55Fe uptake rates were examined in a fet3 fet4 strain expressing IRT1. Little or no uptake was detected at 0° C. for either IRT1-expressing or untransformed control cells (FIG. 2A). The fet3 fet4 mutant strain DEY1453 (circles) and DEY1453 transformed with pIRT-1 (squares) were grown to exponential phase in SD glucose and assayed for iron uptake with ^55Fe. (A) Time- and temperature-dependence of iron accumulation assayed in MGN with 1 mM ascorbate and 5 μM ^55FeCl3 assayed at 30° C. (open symbols) or 0° C. (solid symbols). The dashed line marked with open triangles represents the IRT1-dependent accumulation, i.e., the accumulation of iron by the untransformed strain at 30° C. subtracted from the accumulation of the pIRT-1-bearing strain at 30° C. […] The IRT1-dependent rate was ≈3-fold higher than the control uptake rate. No increased uptake was apparent in strains bearing either of two randomly selected clones from the library, indicating the dependence of these uptake effects on expression of IRT1. The iron uptake activity dependent on IRT1 expression was also concentration-dependent and saturable (FIG. 2B). The same strains as in A were assayed for iron uptake rates for 10 min over a range of concentrations. The dashed lines marked with open triangles represents the IRT1-dependent uptake rate, i.e., background uptake rate of the untransformed strain subtracted from the corresponding rate of the pIRT-1-bearing strains. (Inset) Eadie-Hofstee plot of the IRT1-dependent uptake data. Each point represents the mean of three experiments each performed in duplicate. The standard deviation within each experiment was less that 20% of the corresponding mean.
The experiments described above were conducted with iron supplied as Fe(II), i.e., in the presence of ascorbate, an agent capable of reducing Fe(III) to Fe(II). To determine if Fe(II) is the preferred substrate over Fe(III), assays were carried out in the absence of ascorbate where iron is supplied to the cells as Fe(III). […] The fet3 fet4 mutant strain DEY1453 and DEY1453 transformed with pIRT-1 were grown to exponential phase is SD glucose and assayed for iron uptake with 1 μM FeCl3 in MGN for 10 min. The values shown are the IRT1-dependent rates, i.e., the untransformed strain control values were subtracted from the DEY1453 pIRT-1 values and represent the means of four replicates. The asterisks indicate significant of differences from the control values (P<0.05). Assays were performed in the absence [Fe(III)] or presence [Fe(II)] of 1 mM ascorbate. […] Although yeast are capable of reducing Fe(III) to Fe(II) through the action of plasma membrane Fe(III) reductases, this rate of cell-mediated reduction is slower than reduction by ascorbate and therefore may be rate-limiting for IRT1-dependent uptake. To assess if metals other than iron are potential substrates for IRT1, several transition metals were tested for their ability to inhibit accumulation of iron in IRT1-expressing cells (FIG. 3B). Assays were conducted in the absence (−) or presence of 10 μM metal. […]

Compound | effect on the rate of iron uptake by IRT1 (10 min) | inhibition of IRT1-mediated Fe(II) uptake in yeast (summary statement) | also measured
[Cl][Cu][Cl] [Cu] | no significant effect | – | –
[Cl][Ni][Cl] [Ni] | no significant effect | – | –
[Cl-].[Cl-].[Co+2] [Co] | no significant effect | inhibitors of IRT1-mediated Fe(II) uptake | –
[Zn+2] [zinc] | no significant effect | inhibitors of IRT1-mediated Fe(II) uptake | –
[Cl][Fe]([Cl])[Cl] [Fe(III)] | – | – | iron uptake rate in the absence of ascorbate relative to rate with ascorbate (1 μM FeCl3 in MGN, 10 min, iron supplied as Fe(III)): ≈ 10%
[Fe+2] [Fe(II)] | potent inhibitors | – | IRT1-dependent uptake rate relative to control uptake rate (5 μM 55FeCl3, 1 mM ascorbate, 30° C., first 10 min): ≈ 3 fold; Vmax of IRT1-mediated iron uptake (iron supplied as Fe(II) (1 mM ascorbate), 10 min, DEY1453 pIRT-1 minus untransformed strain): 1.9±0.4 pmol per min per 10^6 cells; Km (iron supplied as Fe(II) (1 mM ascorbate), 10 min, DEY1453 pIRT-1 minus untransformed strain, read-out: apparent Km of IRT1-mediated iron uptake): 6 ± 1 µM
[Cl][Mn][Cl] [Mn] | no significant effect | inhibitors of IRT1-mediated Fe(II) uptake | –
